Results: patent publication US20250230161A1, “POLYCYCLIC CAP-DEPENDENT ENDONUCLEASE INHIBITORS FOR TREATING OR PREVENTING INFLUENZA” (Merck Sharp & Dohme LLC, priority 2021, published 2025)

Tested on: FLU A (PR/8/34)
Experiment: Flu A Neuraminidase Antiviral Assay
Type: cell-based
Conditions: MDCK cells infected with FLU A (PR/8/34), 48 h incubation, NA activity by MUNANA fluorescence

| Structure (SMILES) | EC50 [nM] |
| --- | --- |
| O=C1c2c(O)c(=O)ccn2N2CN1CC(F)CCC2c1ccccc1 (centres unmarked) [Compound 9] | 578 |
| O=C1c2c(O)c(=O)ccn2N2CN1CCCCCC2c1ccccc1 (centres unmarked) [Compound 14] | 927 |
| O=C1c2c(O)c(=O)ccn2N2CN1CCCCC2c1cccc(Cl)c1 (centres unmarked) [Compound 3] | 133 |
| O=C1c2c(O)c(=O)ccn2N2CN1CCCCC2c1ccc2ccccc2c1 (centres unmarked) [Compound 12] | 6290 |
| O=C1c2c(O)c(=O)ccn2N2CN1C/C=C\CC2c1ccccc1 (centres unmarked) [Compound 17] | 193 |
| O=C1c2c(O)c(=O)ccn2N2CN1CCCCC2c1ccccc1Br (centres unmarked) [Compound 5] | 92 |
| O=C1c2c(O)c(=O)ccn2N2CN1CCCCC2c1cccc2ccc(F)cc12 (centres unmarked) [Compound 11] | 966 |
| O=C1c2c(O)c(=O)ccn2N2CN1CCCCC2c1cccc2ccccc12 (centres unmarked) [Compound 10] | 577 |
| CC1/C=C\CC(c2ccccc2)N2CN1C(=O)c1c(O)c(=O)ccn12 (centres unmarked) [Compound 19] | 229 |
| O=C1c2c(O)c(=O)ccn2N2CN1C(C1CC1)/C=C\CC2c1ccccc1 (centres unmarked) [Compound 20] | 171 |
| CC1CCCC(c2ccccc2)N2CN1C(=O)c1c(O)c(=O)ccn12 (centres unmarked) [Compound 15] | 460 |
| CC1N2CCCCC(c3ccccc3)N1n1ccc(=O)c(O)c1C2=O (centres unmarked) [Compound 21] | 98 |
| O=C1c2c(O)c(=O)ccn2N2CN1C(C1CC1)CCCC2c1ccccc1 (centres unmarked) [Compound 16] | 164 |
| O=C1c2c(O)c(=O)ccn2N2CN1C/C=C\CC2c1cccc2ccc(F)cc12 (centres unmarked) [Compound 18] | 1460 |
| CC1CCN2CN(C(c3ccccc3)C1)n1ccc(=O)c(O)c1C2=O (centres unmarked) [Compound 23] | 4410 |
| CC1N2CCCCCC(c3ccccc3)N1n1ccc(=O)c(O)c1C2=O (centres unmarked) [Compound 22] | 228 |
| CC1(c2ccccc2)CCCCN2CN1n1ccc(=O)c(O)c1C2=O (centres unmarked) [Compound 13] | 310 |
| O=C1c2c(O)c(=O)ccn2N2CN1CCCCC2c1ccc(Cl)cc1 (centres unmarked) [Compound 4] | 1690 |
| O=C1c2c(O)c(=O)ccn2N2CN1CCCCC2c1ccccc1 (centres unmarked) [Compound 1] | 143 |
| O=C1c2c(O)c(=O)ccn2N2CN1CCCCC2c1ccccc1Cl (centres unmarked) [Compound 2] | 72 |
